Assay results: patent US11213032B2, “Insecticidal compounds” (SYNGENTA PARTICIPATIONS AG, priority 2017, dated 2022)

Experiments:
Assay type in all cases: in vivo
[1] = test system: Diabrotica balteata (Corn Root Worm); assay: Diabrotica balteata (corn root worm) on maize sprouts, spray; conditions: 96 h, L2 larvae, 4 days after infestation, read-out: effect in at least one of the two categories (mortality or growth inhibition)
Procedure: Diabrotica balteata (Corn Root Worm)
Maize sprouts placed onto an agar layer in 24-well microtiter plates were treated with aqueous test solutions prepared from 10,000 ppm DMSO stock solutions by spraying. After drying, the plates were infested with L2 larvae (6 to 10 per well). The samples were assessed for mortality and growth inhibition in comparison to untreated samples 4 days after infestation.

[2] = test system: Euschistus heros (Neotropical Brown Stink Bug); assay: Euschistus heros (neotropical brown stink bug) on soybean leaves, spray; conditions: 120 h, N2 nymphs, 5 days after infestation, read-out: effect in at least one of the two categories (mortality or growth inhibition)
Procedure: Euschistus heros (Neotropical Brown Stink Bug)
Soybean leaves on agar in 24-well microtiter plates were sprayed with aqueous test solutions prepared from 10,000 ppm DMSO stock solutions. After drying the leaves were infested with N2 nymphs. The samples were assessed for mortality and growth inhibition in comparison to untreated samples 5 days after infestation.

[3] = test system: Tetranychus urticae (Two-Spotted Spider Mite); assay: whole plant or invertebrate; conditions: 192 h
Procedure: Tetranychus urticae (Two-Spotted Spider Mite): Feeding/Contact Activity
Bean leaf discs on agar in 24-well microtiter plates were sprayed with aqueous test solutions prepared from 10,000 ppm DMSO stock solutions. After drying the leaf discs were infested with a mite population of mixed ages. The samples were assessed for mortality on mixed population (mobile stages) 8 days after infestation.

[4] = test system: Myzus persicae (Green Peach Aphid); assay: Myzus persicae (green peach aphid) feeding/contact activity; conditions: 144 h, mixed ages, 6 days after infestation
Procedure: Myzus persicae (Green Peach Aphid): Feeding/Contact Activity
(§1) Sunflower leaf discs were placed onto agar in a 24-well microtiter plate and sprayed with aqueous test solutions prepared from 10,000 ppm DMSO stock solutions. After drying, the leaf discs were infested with an aphid population of mixed ages. The samples were assessed for mortality 6 days after infestation.

[5] = test system: Spodoptera littoralis (Egyptian Cotton Leaf Worm); assay: Spodoptera littoralis (Egyptian cotton leaf worm) on cotton leaf discs; conditions: foliar, 72 h, L1 larvae, 3 days after infestation
Procedure: Spodoptera littoralis (Egyptian Cotton Leaf Worm)
Cotton leaf discs were placed onto agar in 24-well microtiter plates and sprayed with aqueous test solutions prepared from 10,000 ppm DMSO stock solutions. After drying the leaf discs were infested with five L1 larvae. The samples were assessed for mortality, anti-feeding effect, and growth inhibition in comparison to untreated samples 3 days after infestation. Control of Spodoptera littoralis by a test sample is given when at least one of the categories mortality, anti-feedant effect, and growth inhibition is higher than the untreated sample.

[6] = test system: Plutella xylostella (Diamond Back Moth); assay: Plutella xylostella (diamond back moth) feeding/contact activity; conditions: 120 h, L2 larvae, artificial diet, 5 days after infestation
Procedure: Plutella xylostella (Diamond Back Moth): Feeding/Contact Activity
24-well microtiter plates with artificial diet were treated with aqueous test solutions prepared from 10,000 ppm DMSO stock solutions by pipetting. After drying, the plates were infested with L2 larvae (10 to 15 per well). The samples were assessed for mortality 5 days after infestation.

[7] = test system: Thrips tabaci (Onion thrips); assay: Thrips tabaci (onion thrips) feeding/contact activity; conditions: 144 h, mixed ages, 6 days after infestation
Procedure: Thrips tabaci (Onion thrips) Feeding/Contact Activity
as §1, with “on” for “onto”, “in” for “in a”, “plates” for “plate”, “drying” for “drying,”, “a thrips” for “an aphid”

CCOC1=NOC(NC(=O)c2ccc(C3=NS[C@](c4cc(Cl)cc(Cl)c4)(C(F)(F)F)C3)cc2C)C1 (stereo partly drawn) [Compound A01, 4-[(5R)-5-(3,5-dichlorophenyl)-5-(trifluoromethyl)-4H-isothiazol-3-yl]-N-(3-ethoxy-4,5-dihydroisoxazol-5-yl)-2-methyl-benzamide]
≥ 80%: percent effect (mortality or growth inhibition) at 200 ppm [1] | percent effect (mortality or growth inhibition) at 200 ppm [2] | mortality at 200 ppm [3] | mortality at 200 ppm [4] | percent control (mortality, anti-feedant effect or growth inhibition) at 200 ppm [5] | mortality at 200 ppm [6] | mortality at 200 ppm [7]

CCOC1=NOC(NC(=O)c2ccc(N3CCC(c4cc(Cl)cc(Cl)c4)(C(F)(F)F)C3)cc2C)C1 (stereo not shown) [Compound A02, 4-[3-(3,5-dichlorophenyl)-3-(trifluoromethyl)pyrrolidin-1-yl]-N-(3-ethoxy-4,5-dihydroisoxazol-5-yl)-2-methyl-benzamide]
≥ 80%: percent effect (mortality or growth inhibition) at 200 ppm [1] | percent effect (mortality or growth inhibition) at 200 ppm [2] | mortality at 200 ppm [3] | percent control (mortality, anti-feedant effect or growth inhibition) at 200 ppm [5] | mortality at 200 ppm [6] | mortality at 200 ppm [7]
